Experimental data from patent US10183950B2, “Thienopyrimidine inhibitors of atypical protein kinase C” (Cancer Research Technology Limited, priority 2011, dated 2019).

Biological target: T1, kinase-domain human PKCι (Homo sapiens, UniProt P41743)
T1 construct: Recombinant, kinase-domain human PKCι is expressed and purified in-house; made in house
T1 sequence (P41743 254-522 limits assumed): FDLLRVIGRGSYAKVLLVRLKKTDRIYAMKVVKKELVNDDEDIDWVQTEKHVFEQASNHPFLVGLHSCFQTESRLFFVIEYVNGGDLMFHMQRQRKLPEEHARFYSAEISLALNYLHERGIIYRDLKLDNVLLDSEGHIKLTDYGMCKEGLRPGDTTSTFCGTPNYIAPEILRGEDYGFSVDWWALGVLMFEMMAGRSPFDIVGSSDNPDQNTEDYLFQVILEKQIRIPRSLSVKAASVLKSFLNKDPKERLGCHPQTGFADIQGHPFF
Assay: PKCι IC50 IMAP fluorescence polarisation assay, kinase-domain enzyme
Format: biochemical
Conditions: kinase domain PKCi at 2 μM ATP; read-out: IC50 in IMAP assay against kinase domain PKCi
Method: Assays are based on the ability of PKCι to phosphorylate a commercially available peptide substrate in vitro. […] Recombinant, full-length human PKCι expressed in Sf21 insect cells is also commercially available. Recombinant, kinase-domain human PKCι is expressed and purified in-house.
The procedure below explains how dose response curves for inhibitors of PKCι are obtained.
Compounds to be tested are dissolved in 100% DMSO. […] 1 μl is plated into 384 well black low-binding flat bottomed assay plates which are used immediately. Dilutions and additions of compound to assay plates are carried out using Matrix WellMate® and Matrix PlateMate® Plus liquid handling systems.
The final concentration of peptide substrate in the assay is 100 nM. […] Relevant controls are included, namely no compound and no enzyme. […] The reaction is allowed to incubate for 60 minutes at room temperature, before the reaction is stopped and developed by the addition of 20 μl IMAP™ development reagent (Molecular Devices). IMAP development reagent consists of 0.25% (v/v) IMAP progressive binding reagent, 17% (v/v) IMAP progressive binding buffer A and 3% (v/v) IMAP progressive binding buffer B. The plates are then incubated for 2 hours at room temperature before being read using an appropriate plate reader, for example a Molecular Devices HT Analyst or a BMG Pherastar.

IC50, 10 to 40 µM:
Cc1csc2c(OC[C@H]3CCCN3)nc(-c3ccncc3)nc12 [compound 476, 7-methyl-2-pyridin-4-yl-4-((R)-1-pyrrolidin-2-ylmethoxy)-thieno[3,2-d]pyrimidine]
C[C@@H](N)CNc1nc(-c2ccncc2)nc2c1sc1ncccc12 [compound 379, (R)-N*1*-(2-Pyridin-4-yl-pyrido[3′,2′:4,5]thieno[3,2-d]pyrimidin-4-yl)-propane-1,2-diamine]

IC50, 0.1 to 1 µM:
Cc1csc2c(NCCN)nc(-c3ccncc3)nc12 [compound 370, N*1*-(7-Methyl-2-pyridin-4-yl-thieno[3,2-d]pyrimidin-4-yl)-ethane-1,2-diamine]

IC50, 1 to 10 µM:
Cc1cc(C)c2c(n1)sc1c(N3CCCNCC3)nc(-c3ccncc3)nc12 [compound 381, 4-[1,4]Diazepan-1-yl-7,9-dimethyl-2-pyridin-4-yl-pyrido[3′,2′:4,5]thieno[3,2-d]pyrimidine]
C[C@H](N)CNc1nc(-c2ccncc2)nc2c1sc1ncccc12 [compound 378, (S)-N*1*-(2-Pyridin-4-yl-pyrido[3′,2′:4,5]thieno[3,2-d]pyrimidin-4-yl)-propane-1,2-diamine]
Cc1cc(C)c2c(n1)sc1c(N3CCNCC3)nc(-c3ccncc3)nc12 [compound 380, 7,9-Dimethyl-4-piperazin-1-yl-2-pyridin-4-yl-pyrido[3′,2′:4,5]thieno[3,2-d]pyrimidine]

Same assay, conditions: kinase domain PKCi at 2 μM ATP; read-out: IC50 in IMAP assay against kinase domain PKCi (Activity)

IC50, 1 to 10 µM:
CC[C@@H](N)COc1nc(-c2ccncc2)nc2sc3c(c12)CCCC3 [compound 149, (R)-1-(2-Pyridin-4-yl-5,6,7,8-tetrahydro-benzo[4,5]thieno[2,3-d]pyrimidin-4-yloxymethyl)-propylamine]
NCCNc1nc(-c2ccncc2F)nc2sc3c(c12)CCCC3 [compound 97, N*1*-[2-(3-fluoro-pyridin-4-yl)-5,6,7,8-tetrahydro-benzo[4,5]thieno [2,3-d]pyrimidin-4-yl]-ethane-1,2-diamine]
C[C@H](N)CNc1nc(-c2ccncc2F)nc2sc3c(c12)CCCC3 [compound 99, (S)-N*1*-[2-(3-Fluoro-pyridin-4-yl)-5,6,7,8-tetrahydro-benzo[4,5]thieno[2,3-d]pyrimidin-4-yl]-propane-1,2-diamine]
C[C@H](N)CNc1nc(-c2ccncc2)nc2sc3c(c12)CCCCCC3 [compound 25, (S)-N*1*-(2-Pyridin-4-yl-5,6,7,8,9, 10-hexahydro-11-thia-1,3-diaza-cycloocta[a]inden-4-yl)-propane-1,2-diamine]
Cc1sc2nc(-c3ccncc3)nc(NC[C@H](C)N)c2c1C [compound 37, (S)-N*1*-(5,6-Dimethyl-2-pyridin-4-yl-thieno[2,3-d]pyrimidin-4-yl)-propane-1,2-diamine]
CC(C)c1cc2c(NC[C@@H](N)Cc3ccccc3)nc(-c3ccncc3)nc2s1 [compound 75, (S)-N*1*-(6-Isopropyl-2-pyridin-4-yl-thieno[2,3-d]pyrimidin-4-yl)-3-phenyl-propane-1,2-diamine]
CC(C)C[C@H](N)COc1nc(-c2ccncc2)nc2sc3c(c12)CCCC3 [compound 138, (S)-3-Methyl-1-(2-pyridin-4-yl-5,6,7,8-tetrahydro-benzo[4,5]thieno[2,3-d]pyrimidin-4-yloxymethyl)-butylamine]
CC1CCc2c(sc3nc(-c4ccncc4)nc(NC[C@@H](C)N)c23)C1 (stereo partly drawn) [compound 23, (R)-N*1*-(7-Methyl-2-pyridin-4-yl-5,6,7,8-tetrahydro-benzo[4,5]thieno[2,3-d]pyrimidin-4-yl)-propane-1,2-diamine]
N[C@H](COc1nc(-c2ccncc2)nc2sc3c(c12)CCCC3)CC1CCCCC1 [compound 157, (S)-2-Cyclohexyl-1-(2-pyridin-4-yl-5,6,7,8-tetrahydro-benzo[4,5]thieno[2,3-d]pyrimidin-4-yloxymethyl)-ethylamine]

IC50, 10 to 40 µM:
N[C@@H](COc1nc(-c2ccncc2)nc2sc3c(c12)CCCC3)Cc1ccc2ccccc2c1 [compound 172, (R)-1-Naphthalen-2-ylmethyl-2-(2-pyridin-4-yl-5,6,7,8-tetrahydro-benzo[4,5]thieno[2,3-d]pyrimidin-4-yloxy)-ethylamine]
Oc1cccc(CN2CCN(c3nc(-c4ccncc4)nc4sc5c(c34)CCCC5)CC2)c1 [compound 126, 3-[4-(2-Pyridin-4-yl-5,6,7,8-tetrahydro-benzo[4,5]thieno[2,3-d]pyrimidin-4-yl)-piperazin-1-ylmethyl]-phenol]
CC(C)[C@@H](N)COc1nc(-c2ccncc2)nc2sc3c(c12)CCCC3 [compound 148, (R)-2-Methyl-1-(2-pyridin-4-yl-5,6,7,8-tetrahydro-benzo[4,5]thieno[2,3-d]pyrimidin-4-yloxymethyl)-propylamine]
N[C@@H](COc1nc(-c2ccncc2)nc2sc3c(c12)CCCC3)Cc1cccs1 [compound 170, (R)-2-(2-Pyridin-4-yl-5,6,7,8-tetrahydro-benzo[4,5]thieno[2,3-d]pyrimidin-4-yloxy)-1-thiophen-2-ylmethyl-ethylamine]
N[C@H]1C[C@@H]1Nc1nc(-c2ccncc2)nc2sc3c(c12)CCCC3 [compound 11, (1S,2S)-N-(2-Pyridin-4-yl-5,6,7,8-tetrahydro-benzo[4,5]thieno[2,3-d]pyrimidin-4-yl)-cyclopropane-1,2-diamine]
Clc1cccc(CN2CCN(c3nc(-c4ccncc4)nc4sc5c(c34)CCCC5)CC2)c1 [compound 124, 4-[4-(3-Chloro-benzyl)-piperazin-1-yl]-2-pyridin-4-yl-5,6,7,8-tetrahydro-benzo[4,5]thieno[2,3-d]pyrimidine]
Brc1cccc(CN2CCN(c3nc(-c4ccncc4)nc4sc5c(c34)CCCC5)CC2)c1 [compound 127, 4-[4-(3-Bromo-benzyl)-piperazin-1-yl]-2-pyridin-4-yl-5,6,7,8-tetrahydro-benzo[4,5]thieno[2,3-d]pyrimidine]

IC50, 0.1 to 1 µM:
c1cc(-c2nc(N3CCCNCC3)c3c4c(sc3n2)CCCCC4)ccn1 [compound 86, 4-[1,4]Diazepan-1-yl-2-pyridin-4-yl-6,7,8,9-tetrahydro-5H-10-thia-1,3-diaza-benzo[a]azulene]
N[C@H](CNc1nc(-c2ccncc2)nc2sc3c(c12)CCCCCC3)Cc1ccccc1 [compound 76, (S)-3-Phenyl-N*1*-(2-pyridin-4-yl-5,6,7,8,9,10-hexahydro-11-thia-1,3-diaza-cycloocta[a]inden-4-yl)-propane-1,2-diamine]
NCCNc1nc(-c2ccncc2)nc2sc3c(c12)CCCCCC3 [compound 24, N*1*-(2-Pyridin-4-yl-5,6,7,8,9,10-hexahydro-11-thia-1,3-diaza-cycloocta[a]inden-4-yl)-ethane-1,2-diamine]
Cc1csc2nc(-c3ccncc3)nc(N3CCCNCC3)c12 [compound 95, 4-[1,4]Diazepan-1-yl-5-methyl-2-pyridin-4-yl-thieno[2,3-d]pyrimidine]

IC50, < 0.1 µM:
Cc1csc2nc(-c3ccncc3)nc(N3CCNCC3)c12 [compound 94, 5-Methyl-4-piperazin-1-yl-2-pyridin-4-yl-thieno[2,3-d]pyrimidine]
